Measured values taken from PubChem BioAssay AID256 (DTP/NCI, 2004).
“And” between values parts separate entries of the source, which are not always exact repeats. Equal entries are not always repeated. Inconclusive results and toxic doses are left out.

Test system: CD2F1 mice, L1210 leukemia ip, survival T/C
Assay: NCI In Vivo Anticancer Drug Screen. Data for tumor model L1210 Leukemia (intraperitoneal) in CD2F1 (CDF1) mice
Conditions: higher = longer survival
Method in brief: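 Implant tumor; dose compound or vehicle; measure endpoint in both groups; report treated divided by control.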

[1] = endpoint: mean survival time, dose: 25.0 mg/kg/injection, schedule: Q04DX003 (ip), vehicle: saline
[2] = endpoint: mean survival time, dose: 100.0 mg/kg/injection, schedule: Q01DX001 (ip), vehicle: saline
[3] = endpoint: mean survival time, dose: 50.0 mg/kg/injection, schedule: Q01DX009 (ip), vehicle: saline with Tween-80
[4] = endpoint: mean survival time, dose: 100.0 mg/kg/injection, schedule: Q01DX009 (ip), vehicle: saline with Tween-80
[5] = endpoint: mean survival time, dose: 200.0 mg/kg/injection, schedule: Q01DX009 (ip), vehicle: saline with Tween-80
[6] = endpoint: mean survival time, dose: 200.0 mg/kg/injection, schedule: Q01DX001 (ip), vehicle: saline
[7] = endpoint: mean survival time, dose: 100.0 mg/kg/injection, schedule: Q04DX003 (ip), vehicle: saline with Tween-80
[8] = endpoint: mean survival time, dose: 200.0 mg/kg/injection, schedule: Q04DX003 (ip), vehicle: saline with Tween-80
[9] = endpoint: mean survival time, dose: 400.0 mg/kg/injection, schedule: Q04DX003 (ip), vehicle: saline with Tween-80
[10] = endpoint: mean survival time, dose: 100.0 mg/kg/injection, schedule: Q04DX003 (ip), vehicle: saline
[11] = endpoint: mean survival time, dose: 200.0 mg/kg/injection, schedule: Q04DX003 (ip), vehicle: saline
[12] = endpoint: mean survival time, dose: 400.0 mg/kg/injection, schedule: Q04DX003 (ip), vehicle: saline

[N-]=[N+]=CC(=O)CCC(N)C(=O)O (centres undefined)
T/C (endpoint: mean survival time, dose: 0.03 mg/kg/injection, schedule: Q01DX009 (ip), vehicle: saline): 119 % of control | T/C (endpoint: mean survival time, dose: 0.05 mg/kg/injection, schedule: Q01DX009 (ip), vehicle: saline): 116 % of control | T/C (endpoint: mean survival time, dose: 0.05 mg/kg/injection, schedule: Q01DX009 (oral), vehicle: saline): 107 % of control | T/C (endpoint: mean survival time, dose: 0.05 mg/kg/injection, schedule: Q01DX009 (sc), vehicle: saline): 117 % of control | T/C (endpoint: mean survival time, dose: 0.1 mg/kg/injection, schedule: Q03DX003 (ip), vehicle: saline): 115 % of control | T/C (endpoint: mean survival time, dose: 0.1 mg/kg/injection, schedule: Q04DX003 (ip), vehicle: saline): 117 % of control | T/C (endpoint: mean survival time, dose: 0.2 mg/kg/injection, schedule: Q01DX009 (oral), vehicle: saline): 116 % of control | T/C (endpoint: mean survival time, dose: 0.2 mg/kg/injection, schedule: Q03DX003 (ip), vehicle: saline): 118 % of control | T/C (endpoint: mean survival time, dose: 0.2 mg/kg/injection, schedule: Q04DX003 (ip), vehicle: saline): 123 % of control | T/C (endpoint: mean survival time, dose: 0.4 mg/kg/injection, schedule: Q03HX024 (ip), vehicle: saline): 162 % of control | T/C (endpoint: mean survival time, dose: 0.8 mg/kg/injection, schedule: Q01DX009 (sc), vehicle: saline): 90 % of control | T/C (endpoint: mean survival time, dose: 0.8 mg/kg/injection, schedule: Q03HX024 (ip), vehicle: saline): 102 % of control | T/C (endpoint: mean survival time, dose: 1.6 mg/kg/injection, schedule: Q03HX024 (ip), vehicle: saline): 105 % of control | T/C (endpoint: mean survival time, dose: 3.1 mg/kg/injection, schedule: Q03HX016 (ip), vehicle: saline): 119 % of control | T/C (endpoint: mean survival time, dose: 6.25 mg/kg/injection, schedule: Q03HX008 (ip), vehicle: saline): 118 % of control | T/C (endpoint: mean survival time, dose: 6.25 mg/kg/injection, schedule: Q04DX003 (ip), vehicle: saline): 156 % of control | T/C [1]: 155 % of control | T/C (endpoint: mean survival time, dose: 25.0 mg/kg/injection, schedule: Q08DX002 (ip), vehicle: saline): 150 % of control | T/C (endpoint: mean survival time, dose: 50.0 mg/kg/injection, schedule: Q01DX001 (ip), vehicle: saline): 151 % of control | T/C (endpoint: mean survival time, dose: 50.0 mg/kg/injection, schedule: Q04DX003 (ip), vehicle: saline): 122 % of control | T/C (endpoint: mean survival time, dose: 50.0 mg/kg/injection, schedule: Q08DX002 (ip), vehicle: saline): 162 % of control | T/C [2]: 151 % of control | T/C (endpoint: mean survival time, dose: 100.0 mg/kg/injection, schedule: Q01DX001 (oral), vehicle: saline): 115 % of control | T/C (endpoint: mean survival time, dose: 100.0 mg/kg/injection, schedule: Q08DX002 (ip), vehicle: saline): 155 % of control | T/C (endpoint: mean survival time, dose: 200.0 mg/kg/injection, schedule: Q01DX001 (oral), vehicle: saline): 88 % of control | T/C (endpoint: mean survival time, dose: 200.0 mg/kg/injection, schedule: Q01DX001 (sc), vehicle: saline): 110 % of control | T/C (endpoint: mean survival time, dose: 13.0 micrograms/kg/injection, schedule: Q01DX Z (ip), vehicle: saline): 96 % of control | T/C (endpoint: mean survival time, dose: 25.0 micrograms/kg/injection, schedule: Q01DX Z (ip), vehicle: saline): 94 % of control | T/C (endpoint: mean survival time, dose: 50.0 micrograms/kg/injection, schedule: Q01DX Z (ip), vehicle: saline): 100 % of control | T/C (endpoint: mean survival time, dose: 93.7 micrograms/kg/injection, schedule: Q01DX009 (ip), vehicle: saline): 124 % of control | T/C (endpoint: median survival time, dose: 0.06 mg/kg/injection, schedule: Q01DX009 (ip), vehicle: saline): 119 % of control | T/C (endpoint: median survival time, dose: 0.25 mg/kg/injection, schedule: Q01DX009 (ip), vehicle: saline): 118 % of control | T/C (endpoint: median survival time, dose: 0.39 mg/kg/injection, schedule: Q01DX009 (ip), vehicle: saline): 98 % of control | T/C (endpoint: median survival time, dose: 0.5 mg/kg/injection, schedule: Q01DX009 (ip), vehicle: saline): 102 % of control | T/C (endpoint: median survival time, dose: 0.8 mg/kg/injection, schedule: Q01DX009 (ip), vehicle: saline): 94 % of control and 98 % of control | T/C (endpoint: median survival time, dose: 2.5 mg/kg/injection, schedule: Q04DX003 (ip), vehicle: saline): 152 % of control | T/C (endpoint: median survival time, dose: 5.0 mg/kg/injection, schedule: Q04DX003 (ip), vehicle: saline): 153 % of control and 163 % of control | T/C (endpoint: median survival time, dose: 10.0 mg/kg/injection, schedule: Q04DX003 (ip), vehicle: saline): 167 % of control and 173 % of control | T/C (endpoint: median survival time, dose: 20.0 mg/kg/injection, schedule: Q04DX003 (ip), vehicle: saline): 184 % of control and 189 % of control | T/C (endpoint: median survival time, dose: 40.0 mg/kg/injection, schedule: Q04DX003 (ip), vehicle: saline): 195 % of control and 205 % of control | T/C (endpoint: median survival time, dose: 100.0 mg/kg/injection, schedule: Q01DX001 (ip), vehicle: saline): 114 % of control

CCCCOC(=O)CC(O)C(=O)OCCCC (centres undefined)
T/C [3]: 113 % of control | T/C [4]: 107 % of control | T/C [5]: 103 % of control

CC1CCN(N=Nc2ccc(Br)cc2-c2nc(N)c3cc(Br)ccc3n2)CC1
T/C (endpoint: mean survival time, dose: 6.25 mg/kg/injection, schedule: Q01DX005 (ip), vehicle: other): 92 % of control | T/C (endpoint: mean survival time, dose: 12.5 mg/kg/injection, schedule: Q01DX005 (ip), vehicle: other): 103 % of control | T/C (endpoint: mean survival time, dose: 25.0 mg/kg/injection, schedule: Q01DX005 (ip), vehicle: other): 95 % of control | T/C (endpoint: mean survival time, dose: 50.0 mg/kg/injection, schedule: Q01DX005 (ip), vehicle: other): 92 % of control | T/C (endpoint: mean survival time, dose: 100.0 mg/kg/injection, schedule: Q01DX005 (ip), vehicle: other): 92 % of control

CC1CN(Br)C(=O)N(Br)C1=O (centres undefined)
T/C (endpoint: mean survival time, dose: 75.0 mg/kg/injection, schedule: Q01DX001 (ip), vehicle: saline): 102 % of control | T/C (endpoint: mean survival time, dose: 150.0 mg/kg/injection, schedule: Q01DX001 (ip), vehicle: saline): 100 % of control

CONC(=O)c1ccccc1N=NN(C)C
T/C (endpoint: mean survival time, dose: 18.75 mg/kg/injection, schedule: Q01DX009 (ip), vehicle: Klucel (hydroxypropylcellulose) (HPC)): 117 % of control and 107 % of control | T/C (endpoint: mean survival time, dose: 37.5 mg/kg/injection, schedule: Q01DX009 (ip), vehicle: Klucel (hydroxypropylcellulose) (HPC)): 117 % of control and 109 % of control | T/C (endpoint: mean survival time, dose: 75.0 mg/kg/injection, schedule: Q01DX009 (ip), vehicle: Klucel (hydroxypropylcellulose) (HPC)): 101 % of control

COc1ccc(-n2cnc3c(=O)[nH]c(N)nc32)cc1
T/C (endpoint: mean survival time, dose: 25.0 mg/kg/injection, schedule: Q01DX001 (ip), vehicle: saline with Tween-80): 95 % of control | T/C (endpoint: mean survival time, dose: 50.0 mg/kg/injection, schedule: Q01DX001 (ip), vehicle: saline with Tween-80): 92 % of control | T/C (endpoint: mean survival time, dose: 100.0 mg/kg/injection, schedule: Q01DX001 (ip), vehicle: saline with Tween-80): 95 % of control

Clc1ccc(N2CSCSC2)cc1
T/C [3]: 95 % of control | T/C [4]: 98 % of control | T/C [5]: 95 % of control

CCC[CH2][Sn]1([CH2]CCC)[O]C(=O)C2CC=CCC2C(=O)[O]1 (centres undefined)
T/C [2]: 102 % of control | T/C [6]: 104 % of control

Cc1cc(C)cc(C(C)(C)C)c1
T/C [4]: 96 % of control | T/C [5]: 102 % of control

ClC=C(c1ccc(Cl)cc1)c1ccc(Cl)cc1
T/C [7]: 97 % of control | T/C [8]: 97 % of control | T/C [9]: 101 % of control

ON(C(=Nc1ccc(Cl)cc1)c1ccccc1)c1ccccc1
T/C [2]: 105 % of control | T/C [10]: 100 % of control | T/C [6]: 97 % of control | T/C [11]: 102 % of control | T/C (endpoint: mean survival time, dose: 400.0 mg/kg/injection, schedule: Q01DX001 (ip), vehicle: saline): 100 % of control | T/C [12]: 100 % of control

Cn1ccc(=O)nc1
T/C (endpoint: mean survival time, dose: 100.0 mg/kg/injection, schedule: Q04DX003 (ip), vehicle: saline sonified): 102 % of control | T/C (endpoint: mean survival time, dose: 200.0 mg/kg/injection, schedule: Q04DX003 (ip), vehicle: saline sonified): 104 % of control | T/C (endpoint: mean survival time, dose: 400.0 mg/kg/injection, schedule: Q04DX003 (ip), vehicle: saline sonified): 104 % of control

Cc1oc([N+](=O)[O-])cc1C(=O)O
T/C [7]: 102 % of control | T/C [8]: 102 % of control | T/C [9]: 115 % of control

O=C1C=C(S(=O)(=O)O)c2ccccc2C1=O
T/C [10]: 105 % of control | T/C [11]: 103 % of control | T/C [12]: 108 % of control

CC(=O)Nc1ccc2nc3ccc(NC(C)=O)cc3[n+](-c3ccccc3)c2c1
T/C (endpoint: mean survival time, dose: 16.0 mg/kg/injection, schedule: Q01DX008 (iv), vehicle: saline): 98 % of control | T/C (endpoint: mean survival time, dose: 25.0 mg/kg/injection, schedule: Q03DX003 (ip), vehicle: saline): 118 % of control | T/C [1]: 123 % of control | T/C (endpoint: mean survival time, dose: 32.0 mg/kg/injection, schedule: Q01DX008 (iv), vehicle: saline): 100 % of control | T/C (endpoint: mean survival time, dose: 50.0 mg/kg/injection, schedule: Q01DX007 (ip), vehicle: saline): 155 % of control | T/C (endpoint: mean survival time, dose: 50.0 mg/kg/injection, schedule: Q01DX009 (ip), vehicle: saline): 157 % of control | T/C (endpoint: mean survival time, dose: 64.0 mg/kg/injection, schedule: Q01DX008 (iv), vehicle: saline): 115 % of control | T/C (endpoint: mean survival time, dose: 100.0 mg/kg/injection, schedule: Q01DX007 (ip), vehicle: saline): 183 % of control | T/C (endpoint: mean survival time, dose: 100.0 mg/kg/injection, schedule: Q01DX009 (ip), vehicle: saline): 155 % of control

CC(=O)N(C)c1ccc(NC(=O)Nc2ccc(Cl)cc2C)cc1
T/C [3]: 91 % of control | T/C [4]: 88 % of control | T/C [5]: 91 % of control
